Data as given in patent US20250032514A1, “COMPOSITIONS AND METHODS FOR THE TREATMENT OF VARIOUS DISEASES” (Amylyx Pharmaceuticals, Inc., priority 2023, published 2025).
Read-outs that look alike come from different tables or passages of the source.

How the values were obtained:
[1] = Study A35-002: single-dose PK of AMX0035, fasted vs high-fat meal, two-period cross-over; format: in vivo, human; settings: for half-life: both sexes, human, plasma
Procedure: The pharmacokinetics (PK) of PB and TURSO after a single dose administration of AMX0035 were determined in adult (40 to 55 years of age) male and female normal healthy participants. Fourteen participants received a single dose of AMX0035 on two occasions (with a washout between periods of no less than 4 days), after fasting or after a high-fat standardized meal in a balanced, two-period, cross-over design (Study A35-002).
Clearance is rapid, and the terminal half-life (t1/2) is less than 1 hour. […] The primary metabolite of PB is phenylacetate (PAA), which occurs endogenously as a phenylalanine metabolite. […] Many participants had two or three peaks of absorption, which is consistent with bile acid storage and release upon a meal/snack. […] The primary metabolites of TURSO include ursodeoxycholic acid (UDCA) and glycoursodeoxycholic acid (GUDCA). All three are naturally occurring hydrophilic bile acids and subject to extensive enterohepatic recirculation.

[2] = tested on: G93A SOD1 mouse model of ALS; settings: cited from earlier work
[3] = in vivo; cited from earlier work
[4] = single oral dose of AMX0035, healthy adults

Row | Compound | half-life ([1]; oral, under both the fed and fasted condition, read-out: terminal half-life (converted)) [h] | half-life ([1]; single oral dose of AMX0035, healthy adults, read-out: terminal half-life (t1/2)) [h] | absorption in the presence of a high-fat meal ([1]; high-fat meal vs fasted) | overall exposure in the presence of a high-fat meal ([1]; high-fat meal vs fasted) | absorption of PB [1, 4] | clearance [1, 4] | survival in in vivo models [2] | most common adverse reactions reported (≥1%) [3] | half-life ([1]; oral, fasting, read-out: terminal t1/2 (average) (converted)) [h] | terminal t1/2 (average) ([1]; fed) [h] | absorption of TURSO ([1]; given with or without food) | Cmax in the presence of a high-fat meal ([1]; high-fat meal vs fasted) | increase in exposure as AUC0-last in the presence of a high-fat meal ([1]; high-fat meal vs fasted)
1 | O=C(O)CCCc1ccccc1 [PB, sodium phenylbutyrate] | ~0.5 | < 1 | significantly slower | lower | rapidly absorbed | rapid | increase survival |  |  |  |  |  | 
2 | C[C@H](CCC(=O)NCCS(=O)(=O)O)[C@H]1CC[C@H]2[C@@H]3[C@@H](O)C[C@@H]4C[C@H](O)CC[C@]4(C)[C@H]3CC[C@]12C [TURSO, taurursodiol] |  |  |  |  |  |  |  | abdominal discomfort, abdominal pain, diarrhea, nausea, pruritus, and rash | 4.8 | 3.6 | slowly absorbed | similar | less than 1 fold
